Where “and” joins values, the source holds several entries; their conditions need not be identical. Equal entries are not always repeated.
Tests used:
[1] = biological target: T1, endogenous CB2R in mouse spleen tissues (Mus musculus, UniProt P47936); experiment: Competition binding, [^3H]-RO6753361, mouse spleen membranes
T1 construct: from tissue; host or cells: mouse spleen membranes
Description: Competition and saturation binding assays were performed using the radiolabeled CB1R/CB2R agonist [^3H]-CP55940 (PerkinElmer, Waltham, MA, United States) in recombinant cell systems, and the newly developed CB2R-selective agonist [^3H]-RO6753361 ([Chicca et al., 2024]) in cells expressing endogenous CB1R/CB2R. Competition assays were conducted by incubating 5, 40, or 40 µg of membrane protein from CHO cells, Jurkat cells or spleen cells, respectively, with 1.5 nM [^3H]-CP55940 or 1.5 nM [^3H]-RO6753361 in the presence or absence of increasing concentrations of ligand (RG7774 or control) for 2 h at 30°C in a final volume of 0.2 mL of assay buffer (50 mmol/L Tris-HCl, 5 mmol/L MgCl2, 2.5 mmol/L EDTA, and 0.5% fatty acid-free BSA [pH 7.4] and 1% DMSO), with gentle shaking. Saturation binding assays were conducted by incubating 1–3 μg, 40 μg, or 30–40 μg of membrane protein from CHO cells, Jurkat cells, or spleen tissue, respectively, with 12 concentrations in the range of 80–0.039 nM [^3H]-CP55940 or [^3H]-RO6753361 for 2 h at 30°C in a final volume of 0.2 mL/well of assay buffer without DMSO. […] IC50 values and Hill slopes were determined with a 4-parameter logistic model using ActivityBase (ID Business Solution, Guilford, United Kingdom) and pKi values were determined using the Cheng-Prusoff equation ([Cheng and Prusoff, 1973]).

human CB2R = biological target: T2, human CB2R (Homo sapiens, UniProt P34972); experiment: Forskolin-stimulated cAMP assay in CHO cells; format: cell-based
T2 construct: bgal (beta-galactosidase fragment of the PathHunter system); host or cells: CHO-K1
T2 sequence (P34972 whole entry, the tested form may be a part): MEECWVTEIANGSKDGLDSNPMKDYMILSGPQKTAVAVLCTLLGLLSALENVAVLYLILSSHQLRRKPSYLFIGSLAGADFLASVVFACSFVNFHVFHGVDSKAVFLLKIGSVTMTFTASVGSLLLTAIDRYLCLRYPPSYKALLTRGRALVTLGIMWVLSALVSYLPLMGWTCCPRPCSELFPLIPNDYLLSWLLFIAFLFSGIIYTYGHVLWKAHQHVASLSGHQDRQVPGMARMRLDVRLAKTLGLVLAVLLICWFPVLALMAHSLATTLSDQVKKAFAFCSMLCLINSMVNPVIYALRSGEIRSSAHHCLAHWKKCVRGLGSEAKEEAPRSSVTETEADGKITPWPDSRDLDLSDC
Description: (§1) The inhibitory effects of RG7774 on forskolin-stimulated accumulation of cAMP were determined using the cAMP-Nano-TRF detection kit (Roche Diagnostics, Penzberg, Germany), as previously described ([Porter et al., 2019]). CHOK1hCB1_bgal, CHOK1mCB2_bgal, and CHOK1hCB2_bgal cells (DiscoveRx, Fremont, CA, United States) were seeded 17–24 h prior to the experiment at a density of 3 × 10^4 cells per well in a black 96-well plate with a flat, clear bottom (Corning, Wiesbaden, Germany) prior to incubating in 5% CO2 at 37°C in a humidified incubator. The growth medium was exchanged with Krebs Ringer bicarbonate buffer containing 1 mM IBMX and 0.1% fatty acid-free BSA and incubated at 30°C for 1 h. RG7774 or positive control (CP55940) (1 µM) was added to a 0.1 mL final assay volume and the mixture was incubated at 30°C for 30 min. The assay was stopped by adding 50 μL 3x lysis reagent and shaking for 2 h at RT. The time-resolved energy transfer was measured using an LF502 Nanoscan FLT (IOM, Berlin, Germany) equipped with a laser excitation source. cAMP content was determined from a standard curve spanning 10–0.13 nM cAMP. Efficacies were expressed as a percentage relative to the positive control.

recombinant mouse CB2R = biological target: T3, recombinant mouse CB2R (Mus musculus, UniProt P47936); experiment: Forskolin-stimulated cAMP assay in CHO cells; format: cell-based
T3 construct: bgal (beta-galactosidase fragment of the PathHunter system); host or cells: CHO-K1
T3 sequence (P47936 whole entry, the tested form may be a part): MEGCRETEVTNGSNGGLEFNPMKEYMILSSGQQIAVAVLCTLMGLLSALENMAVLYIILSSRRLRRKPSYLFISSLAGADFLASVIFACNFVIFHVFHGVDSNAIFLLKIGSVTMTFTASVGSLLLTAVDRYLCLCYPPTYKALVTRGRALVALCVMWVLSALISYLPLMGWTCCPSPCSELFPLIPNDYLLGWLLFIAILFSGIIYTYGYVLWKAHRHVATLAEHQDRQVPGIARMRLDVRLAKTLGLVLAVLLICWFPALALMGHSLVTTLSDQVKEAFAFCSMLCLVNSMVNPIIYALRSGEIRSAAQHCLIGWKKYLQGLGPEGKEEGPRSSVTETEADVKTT
Description: as §1

T1 sequence (P47936 whole entry): as the sequence (P47936 whole entry, the tested form may be a part) above

With `Cn1nnnc1Cn1nnc2c(N3CC[C@H](O)C3)nc(C(C)(C)C)nc21` [RG7774, (S)-1-(5-tert-butyl-3-[(1-methyl-1H-tetrazol-5-yl)methyl]-3H-[1,2,3]triazolo[4,5-d]pyrimidin-7-yl)pyrrolidin-3-ol] the Ki [1] was 39.7 ± 13.5 nM, the EC50 (human CB2R; EC50, inhibition of forskolin-induced cAMP, human CB2R, recombinant CHO cells) was 2.8 nM and 2.81 nM and the “functional affinity for human CB2R over CB1R” value (human CB2R; cAMP assays) was > 3,600 fold. For the same compound, the “efficacy compared to maximum efficacy of CP55940, human CB2R” value (human CB2R; cAMP, CHO cells) was “full agonist”, the EC50 (recombinant mouse CB2R) was 2.6 ± 0.14 nM and the “efficacy compared to maximum efficacy of CP55940, mouse CB2R” value (recombinant mouse CB2R; cAMP, CHO cells) was “full agonist”.
